Data from patent US5726159A, “Antithrombotic agents” (Eli Lilly and Company, priority 1995, dated 1998).
Counter-ions that a name gives are not always drawn.

Key:
thrombin = conditions: Bajusz et al., J. Med. Chem. 1990; cited from earlier work
[1] = Simoons et al., Circulation 1994; cited from earlier work
t-PA = molecular target: T1, t-PA (Homo sapiens, UniProt P00750); experiment: Kass for t-PA, chromogenic substrate; type: biochemical
T1 construct: purchased American Diagnostica, Greenwich, Conn
Description: (§1) By substantially following the procedures described above for human thrombin, and using other human blood coagulation system serine proteases and proteases of the fibrinolytic system with the appropriate chromogenic substrates, identified below, selectivity of the compounds of the present invention with respect to the coagulation factor serine proteases and with respect to the fibrinolytic system serine proteases are evaluated as well as their substantial lack of interference with serine proteases of the fibrinolytic system. […] This would be important to the therapeutic use of such agents as an adjunct to streptokinase, t-PA or urokinase thrombolytic therapy and to the use of such agents as an endogenous fibrinolysis-sparing (with respect to t-PA and urokinase) antithrombotic agent. In addition to the lack of interference with the amidase activity of the fibrinolytic proteases, such fibrinolytic system sparing can be studied by the use of human plasma clots and their lysis by the respective fibrinolytic plasminogen activators.

Human plasmin = molecular target: T2, Human plasmin (Homo sapiens, UniProt P00747); experiment: Kass for plasmin, chromogenic substrate; type: biochemical
T2 construct: Human plasmin is purchased from Boehringer Mannheim, Indianapolis, Ind; purchased Boehringer Mannheim, Indianapolis, Ind
Description: as §1

human thrombin = human thrombin (Homo sapiens, UniProt P00734); experiment: Inhibition of thrombin amidase activity (Kass), chromogenic substrate; type: biochemical; conditions: association constant, mean over concentrations
Human plasma [2] = experiment: Human plasma anticoagulation, activated partial thromboplastin time (APTT); type: biochemical; conditions: concentration required to double the clotting time
Outline: (§2)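 Compounds added across a wide concentration range to plasma; PT measured with Thromboplastin-C, APTT after 120 s Actin incubation then 0.02 M CaCl2, TT with bovine thrombin (10 NIH units/mL). Clotting-time doubling concentrations estimated by linear extrapolation.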

factor Xa = factor Xa (Homo sapiens, UniProt P00742); experiment: Kass for factor Xa, chromogenic substrate; type: biochemical
Description: as §1
(§3) Chromogenic substrates: N-Benzoyl-Ile-Glu-Gly-Arg-p-nitroanilide (for factor Xa); N-Cbz-D-Arg-Gly-Arg-p-nitroanilide (for factor IXa assay as the factor Xa substrate); Pyroglutamyl-Pro-Arg-p-nitroanilide (for Factor XIa and for aPC); H-D-Pro-Phe-Arg-p-nitroanilide (for factor XIIa); and Pyroglutamyl-Gly-Arg-p-nitroanilide (for urokinase); are purchased from KabiVitrnm, Stockholm, Sweden, or from Midwest Biotech, Fishers, Ind. Bovine trypsin is purchased from Worthington Biochemicals, Freehold, N.J., and human plasma kallikrein from Kabi Vitrum, Stockholm, Sweden. Chromogenic substrate H-D-Pro-Phe-Arg-p-nitroanilide for plasma kallikrein is purchased from Kabi Vitrum, Stockholm, Sweden. N-Benzoyl-Phe-Val-Arg-p-nitroanilide, the substrate for human thrombin and for trypsin, is synthesized according to procedures described above for the compounds of the present invention, using known methods of peptide coupling from commercially available reactants or purchased from Midwest Biotech, Fishers, Ind.

Bovine trypsin = molecular target: T3, Bovine trypsin (Bos taurus, UniProt P00760); experiment: Kass for trypsin, chromogenic substrate; type: biochemical
T3 construct: Bovine trypsin is purchased from Worthington Biochemicals, Freehold, N.J; purchased Worthington Biochemicals, Freehold, N.J
T3 sequence (P00760 24-246): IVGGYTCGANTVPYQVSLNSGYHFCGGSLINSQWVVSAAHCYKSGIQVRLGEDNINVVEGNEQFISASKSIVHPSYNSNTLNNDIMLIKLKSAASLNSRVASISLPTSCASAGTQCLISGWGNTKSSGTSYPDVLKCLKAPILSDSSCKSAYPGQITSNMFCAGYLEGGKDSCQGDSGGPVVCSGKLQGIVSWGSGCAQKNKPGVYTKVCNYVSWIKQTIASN
Description: as §1, §3

Human plasma [3] = experiment: Human plasma anticoagulation, prothrombin time (PT); type: biochemical; conditions: concentration required to double the clotting time
Outline: as §2

Human plasma [4] = experiment: Human plasma anticoagulation, thrombin time (TT); type: biochemical; conditions: concentration required to double the clotting time
Outline: as §2

[5] = Index of bioavailability (% relative activity from plasma TT, oral vs i.v.); type: in vivo; conditions: dose-adjusted AUC of plasma TT, p.o. vs i.v.
Description: Parke Davis) at 37° C. […] Assays are done in duplicate and averaged. […] Each sample population represented alternating sequential time points.

Sequence of factor Xa (P00742 235-488 limits assumed): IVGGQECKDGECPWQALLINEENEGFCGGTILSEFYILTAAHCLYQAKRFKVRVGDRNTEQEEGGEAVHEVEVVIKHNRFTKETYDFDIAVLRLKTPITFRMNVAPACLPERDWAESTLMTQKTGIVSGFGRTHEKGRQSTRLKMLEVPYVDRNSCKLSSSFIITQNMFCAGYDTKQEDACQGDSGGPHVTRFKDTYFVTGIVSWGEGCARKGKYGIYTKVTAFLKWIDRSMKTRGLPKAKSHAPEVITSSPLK
Sequence of factor Xa (P00742 41-179 partner limits assumed): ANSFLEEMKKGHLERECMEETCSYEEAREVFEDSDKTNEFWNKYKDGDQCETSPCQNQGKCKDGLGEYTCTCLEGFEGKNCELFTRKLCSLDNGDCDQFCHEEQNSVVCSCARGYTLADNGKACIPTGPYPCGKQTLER
T1 sequence (P00750 36-562): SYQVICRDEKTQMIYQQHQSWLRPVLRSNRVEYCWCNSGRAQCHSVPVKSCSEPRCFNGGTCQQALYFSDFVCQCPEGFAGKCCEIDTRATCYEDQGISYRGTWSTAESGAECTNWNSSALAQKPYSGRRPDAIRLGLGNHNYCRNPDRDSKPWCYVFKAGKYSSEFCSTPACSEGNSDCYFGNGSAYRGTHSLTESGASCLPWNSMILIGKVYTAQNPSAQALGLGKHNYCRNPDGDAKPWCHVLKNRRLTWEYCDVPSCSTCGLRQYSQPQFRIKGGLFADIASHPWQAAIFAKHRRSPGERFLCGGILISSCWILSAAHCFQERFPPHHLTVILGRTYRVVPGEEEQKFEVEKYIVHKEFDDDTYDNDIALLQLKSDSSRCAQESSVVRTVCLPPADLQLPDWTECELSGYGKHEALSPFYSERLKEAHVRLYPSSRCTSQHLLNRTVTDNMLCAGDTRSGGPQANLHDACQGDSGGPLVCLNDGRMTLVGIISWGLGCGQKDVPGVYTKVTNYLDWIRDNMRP
T2 sequence (P00747 581-810 limits assumed): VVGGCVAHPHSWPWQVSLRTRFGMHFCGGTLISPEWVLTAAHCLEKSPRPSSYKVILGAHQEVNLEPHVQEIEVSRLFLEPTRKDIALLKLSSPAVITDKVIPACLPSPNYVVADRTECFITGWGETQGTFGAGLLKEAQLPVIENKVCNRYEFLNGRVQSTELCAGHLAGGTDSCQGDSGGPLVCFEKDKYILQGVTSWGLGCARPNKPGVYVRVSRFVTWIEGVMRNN
T2 sequence (P00747 97-580 partner limits assumed): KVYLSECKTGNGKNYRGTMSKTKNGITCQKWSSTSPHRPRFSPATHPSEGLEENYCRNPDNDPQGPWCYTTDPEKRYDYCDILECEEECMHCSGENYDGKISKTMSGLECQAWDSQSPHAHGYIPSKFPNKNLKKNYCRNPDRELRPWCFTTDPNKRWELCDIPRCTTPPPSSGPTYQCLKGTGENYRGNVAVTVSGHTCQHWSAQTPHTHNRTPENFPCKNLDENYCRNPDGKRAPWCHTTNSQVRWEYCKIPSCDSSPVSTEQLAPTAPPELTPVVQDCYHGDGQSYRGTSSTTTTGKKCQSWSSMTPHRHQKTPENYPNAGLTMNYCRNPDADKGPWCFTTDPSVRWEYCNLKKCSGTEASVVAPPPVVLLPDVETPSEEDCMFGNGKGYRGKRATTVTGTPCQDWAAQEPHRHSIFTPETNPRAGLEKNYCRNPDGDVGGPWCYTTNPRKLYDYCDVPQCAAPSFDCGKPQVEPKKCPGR

Compound	direct inhibition of thrombin (thrombin)	anticoagulant activity in man [1]	Kass t-PA (t-PA)	Kass Plasmin (Human plasmin)	Kass Human Thrombin (human thrombin)	2x Clotting time APTT (Human plasma [2])	Kass Xa (factor Xa)	Kass Trypsin (Bovine trypsin)	2x Clotting time PT (Human plasma [3])	2x Clotting time TT (Human plasma [4])	% oral/i.v. activity (Rat) [5]
CN[C@H](Cc1ccccc1)C(=O)N1CCC[C@H]1C(=O)N[C@H](C=O)CCCNC(=N)N [D-MePhe-Pro-Arg-H]	potent direct inhibition of thrombin										
CN[C@H](Cc1ccccc1)C(=O)N1CCC[C@H]1C(=O)N[C@H](C=O)CCCNC(=N)N.O=S(=O)(O)O [D-MePhe-Pro-Arg-H sulfate]		anticoagulant in man									
D-hPro-N(PhCH2 CH2)Gly-p-NHCH2 -C6 H4 C(NH)NH2.2HCl [Example 21]			0.002 × 10^6 (L/mole)	0.031 × 10^6 (L/mole)	3.6 × 10^6 (L/mole)	2,000 ng/mL	0.62 × 10^6 (L/mole)	0.96 × 10^6 (L/mole)	1,000 ng/mL	160 ng/mL	
N=C(N)NCCC[C@@H](C=O)NC(=O)[C@@H]1CCCN1C(=O)[C@H](N)Cc1ccccc1 [D-Phe-Pro-Arg-H]	potent direct inhibition of thrombin										
D-hPro-Pro(4-cis-PhO)-p-NHCH2 -C6 H4 C(NH)NH2.2HCl [Example 22]			0.004 × 10^6 (L/mole)	0.042 × 10^6 (L/mole)	3.0 × 10^6 (L/mole)	2,300 ng/mL	0.043 × 10^6 (L/mole)	8.5 × 10^6 (L/mole)	1,000 ng/mL	170 ng/mL	
EtSO2 -Phg-cis-Ohi-p-NHCH2 C6 H4 C(NH)NH2.HCl [Example 44]			0.04	1.8		100 ng/mL	0.66		170 ng/mL	4. ng/mL	
CC(C)(C)OC(=O)N[C@H](Cc1ccccc1)C(=O)N1CCC[C@H]1C(=O)N[C@H](C=O)CCCNC(=N)N [Boc-D-Phe-Pro-Arg-H]	potent direct inhibition of thrombin										
CCS(=O)(=O)N[C@H](Cc1ccccc1)C(=O)N1CCC[C@H]1C(=O)NCCCCNC(=N)N [Example 1, EtSO2 -D-Phe-Pro-Agm.HCl]			0.082							250 ng/mL	8%
EtSO2 -D-Phe-Pro-p-NHCH2 -C6 H4 C(=NH)NH2.HCl [Example 23]			0.31 × 10^6 (L/mole)	0.44 × 10^6 (L/mole)	770 × 10^6 (L/mole)	86 ng/mL	0.14 × 10^6 (L/mole)	21 × 10^6 (L/mole)	120 ng/mL	7 ng/mL	
